# Source: ChEMBL document CHEMBL4507279, “Data for DCP probe BI-9627” (2021)
# Key:
# [1] = biological target: Inhibitor of nuclear factor kappa-B kinase subunit alpha (Homo sapiens) (UniProt O15111); details: Compound concentration 1000.0 nM
# [2] = biological target: Mitogen-activated protein kinase kinase kinase kinase 2 (Homo sapiens) (UniProt Q12851); details: Compound concentration 1000.0 nM
# [3] = biological target: Epithelial discoidin domain-containing receptor 1 (Homo sapiens) (UniProt Q08345); details: Compound concentration 1000.0 nM
# [4] = biological target: 5-hydroxytryptamine receptor 7 (Homo sapiens) (UniProt P34969); details: Compound concentration 10.0 uM
# [5] = biological target: Serine/threonine-protein kinase MARK2 (Homo sapiens) (UniProt Q7KZI7); details: Compound concentration 1000.0 nM
# [6] = biological target: Serine/threonine-protein kinase pim-1 (Homo sapiens) (UniProt P11309); details: Compound concentration 1000.0 nM
# [7] = biological target: 5'-AMP-activated protein kinase catalytic subunit alpha-2 (Homo sapiens) (UniProt P54646); details: Compound concentration 1000.0 nM
# [8] = biological target: Mitogen-activated protein kinase 8 (Homo sapiens) (UniProt P45983); details: Compound concentration 1000.0 nM
# Mitogen-activated protein kinase 8 (Homo sapiens), sequence (P45983 whole entry): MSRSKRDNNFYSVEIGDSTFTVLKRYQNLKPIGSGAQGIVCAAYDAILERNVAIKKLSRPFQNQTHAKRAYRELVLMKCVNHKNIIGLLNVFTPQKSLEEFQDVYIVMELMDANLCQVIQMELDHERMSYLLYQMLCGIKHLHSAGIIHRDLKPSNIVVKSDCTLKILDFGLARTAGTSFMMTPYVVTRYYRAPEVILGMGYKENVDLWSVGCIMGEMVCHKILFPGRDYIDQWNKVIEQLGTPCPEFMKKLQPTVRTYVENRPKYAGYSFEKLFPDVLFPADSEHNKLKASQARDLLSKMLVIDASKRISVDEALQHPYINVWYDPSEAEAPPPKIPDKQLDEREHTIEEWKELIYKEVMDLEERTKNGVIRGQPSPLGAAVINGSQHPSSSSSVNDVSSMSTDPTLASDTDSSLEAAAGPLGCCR
# [9] = biological target: BMP-2-inducible protein kinase (Homo sapiens) (UniProt Q9NSY1); details: Compound concentration 1000.0 nM
# [10] = biological target: Serine/threonine-protein kinase N2 (Homo sapiens) (UniProt Q16513); details: Compound concentration 1000.0 nM
# Serine/threonine-protein kinase N2 (Homo sapiens), sequence (Q16513 whole entry, looked up): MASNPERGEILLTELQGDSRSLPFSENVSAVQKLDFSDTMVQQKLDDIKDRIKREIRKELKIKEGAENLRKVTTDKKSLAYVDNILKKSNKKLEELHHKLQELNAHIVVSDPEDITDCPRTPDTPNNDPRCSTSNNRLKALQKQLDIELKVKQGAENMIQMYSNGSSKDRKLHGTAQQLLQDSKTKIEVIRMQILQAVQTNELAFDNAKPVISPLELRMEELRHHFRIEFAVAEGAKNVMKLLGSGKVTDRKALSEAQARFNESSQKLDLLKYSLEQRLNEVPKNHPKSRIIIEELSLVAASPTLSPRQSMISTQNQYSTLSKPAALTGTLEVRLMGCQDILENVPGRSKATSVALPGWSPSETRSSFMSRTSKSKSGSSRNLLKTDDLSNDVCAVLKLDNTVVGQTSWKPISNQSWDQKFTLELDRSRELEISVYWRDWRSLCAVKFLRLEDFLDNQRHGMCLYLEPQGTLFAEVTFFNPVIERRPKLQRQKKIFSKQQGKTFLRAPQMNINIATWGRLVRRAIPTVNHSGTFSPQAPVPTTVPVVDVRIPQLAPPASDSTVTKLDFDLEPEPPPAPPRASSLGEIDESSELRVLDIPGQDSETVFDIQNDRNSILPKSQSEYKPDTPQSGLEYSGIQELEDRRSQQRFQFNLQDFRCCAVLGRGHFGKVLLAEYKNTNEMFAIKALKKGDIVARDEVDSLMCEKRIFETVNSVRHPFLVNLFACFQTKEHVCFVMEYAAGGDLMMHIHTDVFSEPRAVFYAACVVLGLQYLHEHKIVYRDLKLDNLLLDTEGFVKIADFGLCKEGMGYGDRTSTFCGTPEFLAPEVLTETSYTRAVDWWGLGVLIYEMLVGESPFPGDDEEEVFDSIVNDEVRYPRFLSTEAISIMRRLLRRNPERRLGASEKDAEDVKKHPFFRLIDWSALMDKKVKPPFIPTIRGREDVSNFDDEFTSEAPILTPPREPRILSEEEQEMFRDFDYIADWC
# [11] = biological target: Serine/threonine-protein kinase NIM1 (Homo sapiens) (UniProt Q8IY84); details: Compound concentration 1000.0 nM
# Serine/threonine-protein kinase NIM1 (Homo sapiens), sequence (Q8IY84 whole entry): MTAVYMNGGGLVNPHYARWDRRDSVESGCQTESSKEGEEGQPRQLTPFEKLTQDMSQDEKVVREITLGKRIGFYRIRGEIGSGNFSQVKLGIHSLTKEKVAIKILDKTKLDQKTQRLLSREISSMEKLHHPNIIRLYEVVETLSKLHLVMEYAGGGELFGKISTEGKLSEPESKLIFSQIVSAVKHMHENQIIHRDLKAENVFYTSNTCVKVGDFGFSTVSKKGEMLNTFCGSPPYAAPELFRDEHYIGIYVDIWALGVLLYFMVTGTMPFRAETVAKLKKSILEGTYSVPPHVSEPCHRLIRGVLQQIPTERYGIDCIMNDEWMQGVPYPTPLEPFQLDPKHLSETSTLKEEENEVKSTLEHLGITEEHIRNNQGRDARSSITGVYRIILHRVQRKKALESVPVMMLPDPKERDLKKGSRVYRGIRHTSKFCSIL
# [12] = biological target: Serine/threonine-protein kinase Nek11 (Homo sapiens) (UniProt Q8NG66); details: Compound concentration 1000.0 nM
# [13] = biological target: Ankyrin repeat and protein kinase domain-containing protein 1 (Homo sapiens) (UniProt Q8NFD2); details: Compound concentration 1000.0 nM
# [14] = biological target: Hormonally up-regulated neu tumor-associated kinase (Homo sapiens) (UniProt P57058); details: Compound concentration 1000.0 nM
# [15] = biological target: Casein kinase I isoform alpha (Homo sapiens) (UniProt P48729); details: Compound concentration 1000.0 nM
# [16] = biological target: BDNF/NT-3 growth factors receptor (Homo sapiens) (UniProt Q16620); details: Compound concentration 1000.0 nM
# [17] = biological target: STE20-like serine/threonine-protein kinase (Homo sapiens) (UniProt Q9H2G2); details: Compound concentration 1000.0 nM
# [18] = test system: Proto-oncogene tyrosine-protein kinase receptor Ret (Homo sapiens), P07949 [V804L]; details: Compound concentration 1000.0 nM
# Proto-oncogene tyrosine-protein kinase receptor Ret (Homo sapiens), P07949 [V804L], sequence (P07949 whole entry V804L): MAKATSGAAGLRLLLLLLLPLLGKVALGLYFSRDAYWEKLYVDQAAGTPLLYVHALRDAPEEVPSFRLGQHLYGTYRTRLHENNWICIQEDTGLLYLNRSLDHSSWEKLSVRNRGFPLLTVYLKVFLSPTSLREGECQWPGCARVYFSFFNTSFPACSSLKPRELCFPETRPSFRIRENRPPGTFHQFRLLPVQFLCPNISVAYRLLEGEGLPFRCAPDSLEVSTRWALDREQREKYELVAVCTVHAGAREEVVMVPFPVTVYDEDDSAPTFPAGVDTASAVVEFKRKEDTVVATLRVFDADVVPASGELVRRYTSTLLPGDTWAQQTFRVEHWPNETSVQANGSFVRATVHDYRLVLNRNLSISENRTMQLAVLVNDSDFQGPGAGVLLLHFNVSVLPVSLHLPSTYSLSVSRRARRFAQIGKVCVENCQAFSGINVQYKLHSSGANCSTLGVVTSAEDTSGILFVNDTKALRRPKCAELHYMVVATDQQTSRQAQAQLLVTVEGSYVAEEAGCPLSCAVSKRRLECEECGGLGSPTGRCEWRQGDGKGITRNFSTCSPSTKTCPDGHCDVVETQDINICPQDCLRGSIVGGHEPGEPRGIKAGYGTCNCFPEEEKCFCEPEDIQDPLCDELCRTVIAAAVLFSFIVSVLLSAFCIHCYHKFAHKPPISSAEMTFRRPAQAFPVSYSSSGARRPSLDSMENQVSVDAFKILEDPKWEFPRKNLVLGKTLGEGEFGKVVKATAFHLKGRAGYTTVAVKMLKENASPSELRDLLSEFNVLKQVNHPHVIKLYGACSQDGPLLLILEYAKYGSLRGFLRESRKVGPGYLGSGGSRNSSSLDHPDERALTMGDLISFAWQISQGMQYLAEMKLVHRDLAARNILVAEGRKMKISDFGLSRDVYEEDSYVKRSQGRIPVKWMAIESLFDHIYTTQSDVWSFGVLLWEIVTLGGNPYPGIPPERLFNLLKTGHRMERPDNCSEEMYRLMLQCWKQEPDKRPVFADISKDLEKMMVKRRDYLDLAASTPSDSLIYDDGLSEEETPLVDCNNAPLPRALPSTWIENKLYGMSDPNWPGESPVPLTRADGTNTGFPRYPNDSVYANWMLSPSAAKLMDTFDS
# [19] = biological target: Myosin-IIIa (Homo sapiens) (UniProt Q8NEV4); details: Compound concentration 1000.0 nM
# [20] = biological target: Serine/threonine-protein kinase MAK (Homo sapiens) (UniProt P20794); details: Compound concentration 1000.0 nM
# [21] = test system: Epidermal growth factor receptor (Homo sapiens), P00533 [UNDEFINED MUTATION]; details: Compound concentration 1000.0 nM
# [22] = biological target: Sodium/hydrogen exchanger 3 (Homo sapiens, UniProt P48764); assay: pHi change assay with SLC9A3
# [23] = biological target: Bone morphogenetic protein receptor type-1A (Homo sapiens) (UniProt P36894); details: Compound concentration 1000.0 nM
# Bone morphogenetic protein receptor type-1A (Homo sapiens), sequence (P36894 whole entry): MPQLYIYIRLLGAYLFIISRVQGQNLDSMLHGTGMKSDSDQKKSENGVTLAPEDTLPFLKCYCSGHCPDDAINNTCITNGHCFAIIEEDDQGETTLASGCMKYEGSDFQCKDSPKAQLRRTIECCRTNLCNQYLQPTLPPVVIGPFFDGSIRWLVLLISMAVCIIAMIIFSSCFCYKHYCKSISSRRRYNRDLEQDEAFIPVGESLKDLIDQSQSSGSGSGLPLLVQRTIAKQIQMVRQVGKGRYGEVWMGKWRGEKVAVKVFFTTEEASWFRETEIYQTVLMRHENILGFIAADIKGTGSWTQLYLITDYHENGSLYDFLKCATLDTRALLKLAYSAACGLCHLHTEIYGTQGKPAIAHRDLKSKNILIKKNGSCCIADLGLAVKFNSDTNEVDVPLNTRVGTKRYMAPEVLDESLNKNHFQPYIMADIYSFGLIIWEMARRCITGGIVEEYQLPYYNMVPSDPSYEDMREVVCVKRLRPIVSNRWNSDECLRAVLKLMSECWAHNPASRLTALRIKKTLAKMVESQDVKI
# [24] = biological target: 5-hydroxytryptamine receptor 2C (Homo sapiens) (UniProt P28335); details: Compound concentration 10.0 uM
# [25] = biological target: Serine/threonine-protein kinase 16 (Homo sapiens) (UniProt O75716); details: Compound concentration 1000.0 nM
# Serine/threonine-protein kinase 16 (Homo sapiens), sequence (O75716 whole entry): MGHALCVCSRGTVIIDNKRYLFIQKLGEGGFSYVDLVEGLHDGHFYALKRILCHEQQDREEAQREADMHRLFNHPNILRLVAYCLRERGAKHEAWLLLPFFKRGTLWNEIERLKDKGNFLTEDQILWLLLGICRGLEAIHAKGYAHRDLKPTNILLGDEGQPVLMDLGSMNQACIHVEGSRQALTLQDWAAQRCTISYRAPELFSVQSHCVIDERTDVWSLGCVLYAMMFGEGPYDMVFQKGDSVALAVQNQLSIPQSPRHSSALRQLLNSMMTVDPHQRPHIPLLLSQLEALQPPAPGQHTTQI
# [26] = biological target: Vascular endothelial growth factor receptor 3 (Homo sapiens) (UniProt P35916); details: Compound concentration 1000.0 nM
# [27] = biological target: Serine/threonine-protein kinase PAK 3 (Homo sapiens) (UniProt O75914); details: Compound concentration 1000.0 nM
# [28] = biological target: Cyclin-dependent kinase 11B (Homo sapiens) (UniProt P21127); details: Compound concentration 1000.0 nM
# [29] = biological target: Phosphatidylinositol 3-kinase C2 domain-containing subunit gamma (Homo sapiens) (UniProt O75747); details: Compound concentration 1000.0 nM
# [30] = biological target: Serine/threonine-protein kinase TBK1 (Homo sapiens) (UniProt Q9UHD2); details: Compound concentration 1000.0 nM
# [31] = biological target: Phosphorylase b kinase gamma catalytic chain, skeletal muscle/heart isoform (Homo sapiens) (UniProt Q16816); details: Compound concentration 1000.0 nM
# [32] = biological target: Alpha-2B adrenergic receptor (Homo sapiens) (UniProt P18089); details: Compound concentration 10.0 uM
# Alpha-2B adrenergic receptor (Homo sapiens), sequence (P18089 whole entry): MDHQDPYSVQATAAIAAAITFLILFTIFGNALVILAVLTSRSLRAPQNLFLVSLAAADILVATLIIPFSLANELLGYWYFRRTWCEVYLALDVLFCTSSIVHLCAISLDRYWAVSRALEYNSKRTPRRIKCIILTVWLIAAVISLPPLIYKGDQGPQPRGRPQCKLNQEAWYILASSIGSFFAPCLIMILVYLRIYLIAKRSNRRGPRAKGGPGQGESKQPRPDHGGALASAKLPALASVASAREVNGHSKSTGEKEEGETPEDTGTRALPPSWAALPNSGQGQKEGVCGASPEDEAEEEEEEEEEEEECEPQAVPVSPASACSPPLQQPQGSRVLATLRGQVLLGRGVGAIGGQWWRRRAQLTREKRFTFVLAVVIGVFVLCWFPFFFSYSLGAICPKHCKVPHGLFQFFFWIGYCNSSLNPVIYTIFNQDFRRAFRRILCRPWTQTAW
# [33] = biological target: Serine/threonine-protein kinase Nek3 (Homo sapiens) (UniProt P51956); details: Compound concentration 1000.0 nM
# [34] = biological target: Rho-associated protein kinase 2 (Homo sapiens) (UniProt O75116); details: Compound concentration 1000.0 nM
# [35] = test system: Hepatocyte growth factor receptor (Homo sapiens), P08581 [M1250T]; details: Compound concentration 1000.0 nM
# [36] = biological target: Uncharacterized serine/threonine-protein kinase SBK3 (Homo sapiens) (UniProt P0C264); details: Compound concentration 1000.0 nM
# [37] = biological target: Cyclin-dependent kinase 4 (Homo sapiens) (UniProt P11802); details: Compound concentration 1000.0 nM
# [38] = test system: Tyrosine-protein kinase ABL1 (Homo sapiens), P00519 [F317L]; details: Compound concentration 1000.0 nM
# [39] = biological target: MAP kinase-interacting serine/threonine-protein kinase 1 (Homo sapiens) (UniProt Q9BUB5); details: Compound concentration 1000.0 nM
# [40] = biological target: Serine/threonine-protein kinase PLK3 (Homo sapiens) (UniProt Q9H4B4); details: Compound concentration 1000.0 nM
# Serine/threonine-protein kinase PLK3 (Homo sapiens), sequence (Q9H4B4 whole entry, looked up): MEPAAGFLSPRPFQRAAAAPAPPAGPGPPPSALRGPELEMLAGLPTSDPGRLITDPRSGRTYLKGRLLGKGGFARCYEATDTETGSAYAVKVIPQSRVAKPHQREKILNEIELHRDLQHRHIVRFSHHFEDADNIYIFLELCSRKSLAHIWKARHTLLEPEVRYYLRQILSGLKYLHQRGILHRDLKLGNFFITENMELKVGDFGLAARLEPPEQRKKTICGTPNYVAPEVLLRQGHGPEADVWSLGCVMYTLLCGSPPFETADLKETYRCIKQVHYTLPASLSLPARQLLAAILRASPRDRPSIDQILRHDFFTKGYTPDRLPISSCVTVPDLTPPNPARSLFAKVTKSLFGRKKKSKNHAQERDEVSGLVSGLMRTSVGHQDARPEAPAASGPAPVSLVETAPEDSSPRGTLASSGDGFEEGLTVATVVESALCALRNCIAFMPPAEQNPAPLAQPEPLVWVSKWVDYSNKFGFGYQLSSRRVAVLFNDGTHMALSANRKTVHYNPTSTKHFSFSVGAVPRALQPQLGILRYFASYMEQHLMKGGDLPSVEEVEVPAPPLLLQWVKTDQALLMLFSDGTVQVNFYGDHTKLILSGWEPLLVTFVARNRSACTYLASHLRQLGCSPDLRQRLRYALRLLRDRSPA
# [41] = test system: Proto-oncogene tyrosine-protein kinase receptor Ret (Homo sapiens), P07949 [V804M]; details: Compound concentration 1000.0 nM
# Proto-oncogene tyrosine-protein kinase receptor Ret (Homo sapiens), P07949 [V804M], sequence (P07949 whole entry V804M): as the sequence (P07949 whole entry V804L) above, with L804M counted along it
# [42] = biological target: Tyrosine-protein kinase JAK3 (Homo sapiens) (UniProt P52333); details: Compound concentration 1000.0 nM
# [43] = biological target: Hepatocyte growth factor receptor (Homo sapiens) (UniProt P08581); details: Compound concentration 1000.0 nM
# [44] = biological target: Ephrin type-B receptor 2 (Homo sapiens) (UniProt P29323); details: Compound concentration 1000.0 nM
# [45] = biological target: Tyrosine-protein kinase JAK2 (Homo sapiens) (UniProt O60674); details: Compound concentration 1000.0 nM
smiles,measurement,setting,value
CC(=O)N1CCC(c2ccc(C(=O)NC(=N)N)cc2C(F)(F)F)CC1 [BI 9627],residual activity,[1],100%
same,residual activity,[2],100%
same,residual activity,[3],83%
same,inhibition,[4],16.3%
same,residual activity,[5],100%
same,residual activity,[6],100%
same,residual activity,[7],100%
same,residual activity,[8],73%
same,residual activity,[9],96%
same,residual activity,[10],100%
same,residual activity,[11],100%
same,residual activity,[12],100%
same,residual activity,[13],100%
same,residual activity,[14],100%
same,residual activity,[15],92%
same,residual activity,[16],100%
same,residual activity,[17],100%
same,residual activity,[18],97%
same,residual activity,[19],100%
same,residual activity,[20],79%
same,residual activity,[21],90%
same,IC50,[22],> 16 µM (not active)
same,residual activity,[23],100%
same,inhibition,[24],2.59%
same,residual activity,[25],100%
same,residual activity,[26],89%
same,residual activity,[27],84%
same,residual activity,[28],100%
same,residual activity,[29],100%
same,residual activity,[30],100%
same,residual activity,[31],100%
same,inhibition,[32],6.29%
same,residual activity,[33],79%
same,residual activity,[34],100%
same,residual activity,[35],100%
same,residual activity,[36],100%
same,residual activity,[37],100%
same,residual activity,[38],92%
same,residual activity,[39],100%
same,residual activity,[40],82%
same,residual activity,[41],100%
same,residual activity,[42],100%
same,residual activity,[43],100%
same,residual activity,[44],100%
same,residual activity,[45],100%
CC(=O)N1CCC(c2ccc(C(=O)NC3=NCCN3)cc2C(F)(F)F)CC1 [BI 0054],residual activity,[1],90%
same,residual activity,[2],100%
same,residual activity,[3],100%
same,inhibition,[4],3.32%
same,residual activity,[5],100%
same,residual activity,[6],100%
same,residual activity,[7],100%
same,residual activity,[8],84%
same,residual activity,[9],100%
same,residual activity,[10],100%
same,residual activity,[11],100%
same,residual activity,[12],100%
same,residual activity,[13],100%
same,residual activity,[14],100%
same,residual activity,[15],76%
same,residual activity,[16],100%
same,residual activity,[17],94%
same,residual activity,[18],100%
same,residual activity,[19],100%
same,residual activity,[20],61%
same,residual activity,[21],100%
same,IC50,[22],> 10 µM (not active)
same,residual activity,[23],100%
same,inhibition,[24],-2.86%
same,residual activity,[25],100%
same,residual activity,[26],98%
same,residual activity,[27],100%
same,residual activity,[28],92%
same,residual activity,[29],85%
same,residual activity,[30],98%
same,residual activity,[31],100%
same,inhibition,[32],1.01%
same,residual activity,[33],63%
same,residual activity,[34],73%
same,residual activity,[35],84%
same,residual activity,[36],100%
same,residual activity,[37],100%
same,residual activity,[38],95%
same,residual activity,[39],100%
same,residual activity,[40],78%
same,residual activity,[41],100%
same,residual activity,[42],100%
same,residual activity,[43],100%
same,residual activity,[44],82%
same,residual activity,[45],100%
